From US12622965B2, “Therapeutical tools and methods using temperature-sensitive receptors for treating blindness” (FRIEDRICH MIESCHER INSTITUTE FOR BIOMEDICAL RESEARCH, priority 2020, dated 2026) come the findings set out here.

In the assay the test system is HEK cells expressing TRPV1.459-6x-His, TRPV1.465-6x-His or untagged TRPV1. The experiment in a line: whole cell voltage clamp in HEK cells expressing TRPV1 variants, activated by capsaicin. It counts as cell-based. The conditions noted are these: TRPV1 agonist capsaicin 2.5 μM bath applied; voltage clamp −60 mV; mean±s.e.m. The source says: First, they developed a system based on rat TRPV1 channels and gold nanorods with absorption maxima at 915 nm. 915 nm was selected to ensure low water absorption. […] To measure if tagged channels are functional, they performed whole cell voltage clamp in HEK cells expressing TRPV1.459-6x-His, TRPV1.465-6x-His or untagged TRPV1 while activating the channels by TRPV1 agonist capsaicin. The size of evoked currents were similar between TRPV1.465-6x-His and TRPV1 (Mann-Whitney U test, P=0.8551; TRPV1.465-6x-His, 1633±164 pA, […] 15 cells; TRPV1, 1766±276 pA, n=14 cells; mean±s.e.m), but less in TRPV1.459-6x-His (Mann-Whitney U test, P=0.0207; TRPV1.459-6x-His, 976±118 pA, n=19 cells; mean±s.e.m). Therefore, they used TRPV1.465-6x-His (rTRPV1) in subsequent experiments.
For HEK293T cell experiments, cells were maintained at 37° C. on poly-D-lysine/laminin coated coverslips (GG-12-Laminin, Neuvitro) in DMEM supplemented with 10% fetal bovine serum. Cells were transfected with plasmids containing TRP variants using branched PEI. Cells were perfused in oxygenated Ringer's medium containing 110 mM NaCl, 2.5 mM KCl, 1 mM CaCl2, 1.6 mM MgCl2, 10 mM D-glucose and 22 mM NaHCO3 at ˜36° C. for the duration of the experiment. […] Data was analyzed offline using MATLAB (MathWorks).

For “TRPV1: untagged rat TRPV1 channel [reference compound]”, the “size of evoked currents” value was 1766±276 pA.
